This note sets out measurements from patent US11401246B2, “Triazole glycolate oxidase inhibitors” (CANTERO THERAPEUTICS, INC., priority 2018, dated 2022).

Molecules are shown by their SMILES.

The assay deals with T1, human glycolate oxidase (hGO) (Homo sapiens, UniProt Q9UJM8).
T1 construct: His-tag (6 histidines, pET-15b) (N); made in house; host or cells: E. coli BL21 (DE3)
T1 sequence (Q9UJM8 1-370): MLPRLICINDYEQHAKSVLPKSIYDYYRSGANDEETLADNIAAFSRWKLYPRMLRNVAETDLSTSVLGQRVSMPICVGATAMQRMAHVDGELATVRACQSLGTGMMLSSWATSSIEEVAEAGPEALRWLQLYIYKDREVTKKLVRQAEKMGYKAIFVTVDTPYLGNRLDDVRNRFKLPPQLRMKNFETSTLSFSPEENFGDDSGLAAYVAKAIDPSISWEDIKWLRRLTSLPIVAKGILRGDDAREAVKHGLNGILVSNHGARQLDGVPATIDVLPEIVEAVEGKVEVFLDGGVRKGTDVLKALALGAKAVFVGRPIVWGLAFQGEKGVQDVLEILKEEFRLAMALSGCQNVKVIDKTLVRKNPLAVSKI
Nature of the assay: In vitro inhibition of human glycolate oxidase (enzymatic assay, HRP-coupled Trinder reaction).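 Note: values are IC50 potency bins despite the % Inhibition label.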 It counts as biochemical. To be noted: recombinant hGO, 40 mM glycolic acid, pH 7, read at 515 nm, 1 minute after initiation of Trinder reaction; read-out: % Inhibition. An excerpt:
The catalytic reactions used for assaying glycolate oxidase activity in the presence of compounds according to the present disclosure are outlined in FIG. 2. Glycolate oxidase (GO)-catalyzed conversion of glycolate to glyoxylate (top reaction), with the concomitant reduction of the cofactor flavin mononucleotide (FMN), uses molecular oxygen (O2) for recovering its oxidative state, releasing hydrogen peroxide (H2O2). The Trinder reaction (bottom reaction), in which horseradish peroxidase (HRP) uses hydrogen peroxide, 4-aminoantipyrine and a phenol derivative (sulphonated DCIP) to generate a quinoneimine dye that is spectrophotometrically measured.
Human glycolate oxidase (hGO) expression. BL21 (DE3) E. coli transformed with recombinant pET-15b expression vector with the N-terminal His-tag human Hao1 cDNA was grown in LB medium in the presence of 0.1 mg/ml ampicillin. For purification of recombinant human glycolate oxidase (hGO) expressed in BL21 E. coli, bacteria pellets were thawed and re-suspended in 2 ml lysis buffer (50 mM NaH2PO4, 300 mM NaCl, 10 mM imidazole, 50 μM FMN, pH 7.5), and then treated for 30 minutes with 1 mM PMSF for protease inhibition, 0.1% Triton X-100 and 0.2 mg/ml lysozyme to break cellular membranes. After sonication, cells were centrifuged and the supernatant containing the total cellular extract (pre-column fraction) was loaded into a Ni-NTA agarose column and incubated for 30 minutes at 4° C. to allow binding of the 6 histidine tail of recombinant GO protein to the nickel ions. The column was washed with two bed volumes of lysis buffer with 20 mM imidazole to eliminate unbound proteins (wash fraction). GO was eluted using the same buffer with 300 mM imidazole. Fraction containing purified GO was dialyzed against 300 ml of dialysis buffer (50 mM NaH2PO4, 300 mM NaCl, pH 7.5) at 4° C. in agitation overnight, and then kept at 4° C. in darkness. Protein were quantified by the bicinchoninic acid (BCA) assay.
Enzymatic assays. Enzymatic activity of hGO was determined in the presence of glycolate as substrate (40 mM glycolic acid) and phosphate buffer (50 mM KPO4, 0.1 mM EDTA, pH 7). The production of glyoxylate was indirectly measured by the quantification of hydrogen peroxide formed during the first oxidation reaction. […] Enzymatic activity was calculated at 1 minute after initiation of the Trinder reaction.
Turning to `O=C1CCC(c2ccc(Oc3[nH]nnc3C(=O)O)cc2)CC1` [Example 77, 5-(4-(4-oxocyclohexyl)phenoxy)-1H-1,2,3-triazole-4-carboxylic Acid], the IC50 fell in the range of 100 to 200 nM.

Take `Cc1ccc(-c2ccc(Oc3[nH]nnc3C(=O)O)cc2C)c(F)n1` [Example 78, 5-(4-(2-fluoro-6-methylpyridin-3-yl)-3-methylphenoxy)-1H-1,2,3-triazole-4-carboxylic Acid]: the IC50 was less than 100 nM. The result for `Cc1ccc(-c2ccc(Oc3[nH]nnc3C(=O)O)cc2)c(F)n1` [Example 79, 5-(4-(2-fluoro-6-methylpyridin-3-yl)phenoxy)-1H-1,2,3-triazole-4-carboxylic Acid] reads less than 100 nM; that for `Cc1cncc(-c2ccc(Oc3[nH]nnc3C(=O)O)cc2)c1` [Example 80, 5-(4-(5-methylpyridin-3-yl)phenoxy)-1H-1,2,3-triazole-4-carboxylic Acid], less than 100 nM; that for `Cc1cc(-c2ccc(Oc3[nH]nnc3C(=O)O)cc2)ccn1` [Example 81, 5-(4-(2-methylpyridin-4-yl)phenoxy)-1H-1,2,3-triazole-4-carboxylic Acid], less than 100 nM. In the case of `Cc1cc(-c2ccc(Oc3[nH]nnc3C(=O)O)cc2)cnc1F` [Example 82, 5-(4-(6-fluoro-5-methylpyridin-3-yl)phenoxy)-1H-1,2,3-triazole-4-carboxylic Acid], the IC50 is less than 100 nM. The result for `O=C(O)c1nn[nH]c1Oc1ccc(-c2ccnc3ccccc23)cc1` [Example 83, 5-(4-(quinolin-4-yl)phenoxy)-1H-1,2,3-triazole-4-carboxylic Acid] reads less than 100 nM; that for `Cc1ccc(-c2ccc(Oc3[nH]nnc3C(=O)O)cc2)cn1` [Example 84, 5-(4-(6-methylpyridin-3-yl)phenoxy)-1H-1,2,3-triazole-4-carboxylic Acid], 100 to 200 nM. The result for `Cc1cc(Oc2[nH]nnc2C(=O)O)ccc1-c1ccc(F)nc1C` [Example 85, 5-(4-(6-fluoro-2-methylpyridin-3-yl)-3-methylphenoxy)-1H-1,2,3-triazole-4-carboxylic Acid] reads 100 to 200 nM. For `Cc1cc(Oc2[nH]nnc2C(=O)O)ccc1-c1cnc(F)c(C)c1` [Example 86, 5-(4-(6-fluoro-5-methylpyridin-3-yl)-3-methylphenoxy)-1H-1,2,3-triazole-4-carboxylic Acid], the IC50 was 100 to 200 nM. Then `O=C(O)c1[nH]nnc1Oc1ccc(C2CCC(F)(F)CC2)cc1` [Example 87, 5-(4-(4,4-difluorocyclohexyl)phenoxy)-1H-1,2,3-triazole-4-carboxylic Acid], with 100 to 200 nM; and `COc1cc(Oc2[nH]nnc2C(=O)O)ccc1Br` [Example 89, 5-(4-bromo-3-methoxyphenoxy)-1H-1,2,3-triazole-4-carboxylic Acid], with less than 100 nM; and `COc1ccc(-c2ccc(Oc3[nH]nnc3C(=O)O)cc2OC)cn1` [Example 90, 5-(3-methoxy-4-(6-methoxypyridin-3-yl)phenoxy)-1H-1,2,3-triazole-4-carboxylic Acid], with less than 100 nM. On to `COc1ccc(-c2ccc(Oc3[nH]nnc3C(=O)O)cc2OC)c(OC)n1` [Example 91, 5-(4-(2,6-dimethoxypyridin-3-yl)-3-methoxyphenoxy)-1H-1,2,3-triazole-4-carboxylic Acid], for which the IC50 is less than 100 nM. Then `O=C(O)c1nn[nH]c1Oc1ccc(-c2ccnc(F)c2)cc1` [Example 92, 5-(4-(2-fluoropyridin-4-yl)phenoxy)-1H-1,2,3-triazole-4-carboxylic Acid], with less than 100 nM. Then `O=C(O)c1nn[nH]c1Oc1ccc(-c2cccnc2Cl)cc1` [Example 93, 5-(4-(2-chloropyridin-3-yl)phenoxy)-1H-1,2,3-triazole-4-carboxylic Acid], with less than 100 nM; and `O=C(O)c1nn[nH]c1Oc1ccc(-c2cccc3ccccc23)cc1` [Example 94, 5-(4-(1-naphthyl)phenoxy)-1H-1,2,3-triazole-4-carboxylic Acid], with less than 100 nM; and `O=C(O)c1nn[nH]c1Oc1ccc(Br)c(C(F)(F)F)c1` [Example 95, 5-(4-bromo-3-(trifluoromethyl)phenoxy)-1H-1,2,3-triazole-4-carboxylic Acid], with more than 200 nM. Take `O=C(O)c1nn[nH]c1Oc1ccc(-c2cncc3ccccc23)cc1` [Example 96, 5-(4-(isoquinolin-4-yl)phenoxy)-1H-1,2,3-triazole-4-carboxylic Acid]: the IC50 was in the range of 100 to 200 nM. As for `O=C(O)c1nn[nH]c1Oc1ccc(C2CCSCC2)cc1` [Example 97, 5-(4-(tetrahydro-2H-thiopyran-4-yl)phenoxy)-1H-1,2,3-triazole-4-carboxylic Acid], the IC50 lay within 100 to 200 nM. The result for `O=C(O)c1nn[nH]c1Oc1ccc(-c2cccnc2F)cc1F` [Example 98, 5-(2-fluoro-4-(2-fluoropyridin-3-yl)phenoxy)-1H-1,2,3-triazole-4-carboxylic Acid] reads less than 100 nM. Then `O=C(O)c1nn[nH]c1Oc1ccc(-c2cc(F)cnc2Cl)cc1` [Example 99, 5-(4-(2-chloro-5-fluoropyridin-3-yl)phenoxy)-1H-1,2,3-triazole-4-carboxylic Acid], with less than 100 nM; and `COc1ccc(-c2ccc(Oc3[nH]nnc3C(=O)O)cc2)cn1` [Example 100, 5-(4-(6-methoxypyridin-3-yl)phenoxy)-1H-1,2,3-triazole-4-carboxylic Acid], with less than 100 nM; and `COc1ccc(-c2ccc(Oc3[nH]nnc3C(=O)O)cc2)c(OC)n1` [Example 101, 5-(4-(2,6-dimethoxypyridin-3-yl)phenoxy)-1H-1,2,3-triazole-4-carboxylic Acid], with less than 100 nM. Then `CS(=O)(=O)Nc1ccc(-c2ccc(Oc3[nH]nnc3C(=O)O)cc2)cc1` [Example 102, 5-((4′-(methylsulfonamido)-[1,1′-biphenyl]-4-yl)oxy)-1H-1,2,3-triazole-4-carboxylic Acid], with less than 100 nM.

For `O=C(O)c1nn[nH]c1Oc1ccc(-c2ccc(C(F)(F)F)cc2)cc1F` [Example 104, 5-((3-fluoro-4′-(trifluoromethyl)-[1,1′-biphenyl]-4-yl)oxy)-1H-1,2,3-triazole-4-carboxylic Acid], the IC50 was 100 to 200 nM. Regarding `CS(=O)(=O)c1ccc(-c2ccc(Oc3[nH]nnc3C(=O)O)c(F)c2)cc1` [Example 105, 5-((3-fluoro-4′-(methylsulfonyl)-[1,1′-biphenyl]-4-yl)oxy)-1H-1,2,3-triazole-4-carboxylic Acid], the IC50 fell in the range of 100 to 200 nM. The result for `CC(C)(C)c1ccc(-c2ccc(Oc3[nH]nnc3C(=O)O)c(F)c2)cc1` [Example 106, 5-((4′-(tert-butyl)-3-fluoro-[1,1′-biphenyl]-4-yl)oxy)-1H-1,2,3-triazole-4-carboxylic Acid] reads 100 to 200 nM; that for `CC(C)c1ccc(-c2ccc(Oc3[nH]nnc3C(=O)O)c(F)c2)cc1` [Example 107, 5-((3-fluoro-4′-isopropyl-[1,1′-biphenyl]-4-yl)oxy)-1H-1,2,3-triazole-4-carboxylic Acid], 100 to 200 nM; that for `CC(C)Cc1ccc(-c2ccc(Oc3[nH]nnc3C(=O)O)cc2)cc1` [Example 108, 5-((4′-isobutyl-[1,1′-biphenyl]-4-yl)oxy)-1H-1,2,3-triazole-4-carboxylic Acid], more than 200 nM. Take `CC(C)c1cccc(-c2ccc(Oc3[nH]nnc3C(=O)O)cc2)c1` [Example 109, 5-((3′-isopropyl-[1,1′-biphenyl]-4-yl)oxy)-1H-1,2,3-triazole-4-carboxylic Acid]: the IC50 was more than 200 nM.

Regarding `O=C(O)c1nn[nH]c1Oc1ccc(-c2cc(F)c(F)c(F)c2)cc1` [Example 110, 5-((3′,4′,5′-trifluoro-[1,1′-biphenyl]-4-yl)oxy)-1H-1,2,3-triazole-4-carboxylic Acid], the IC50 lay within 100 to 200 nM. For the compound `CC(C)c1ccc(-c2cccc(Oc3[nH]nnc3C(=O)O)c2)cc1` [Example 111, 5-((4′-isopropyl-[1,1′-biphenyl]-3-yl)oxy)-1H-1,2,3-triazole-4-carboxylic Acid], the IC50 fell in the range of 100 to 200 nM.
